System: focal middle cerebral arterial occlusion (MCAO) ischemia
Settings: for infarct volume reduced compared to control animals: after 24 h of reperfusion; for infarct volume reduced compared to control animals / MABP, pO2, pCO2, pH or rectal temperature versus control animals: 4 mg/kg i.p. x4 prior to 1 h MCAO; for neurological deficits: behavior ranking 0 (normal) to 3 (severe), 4 mg/kg i.p. at 6.5 h, 4.5 h, 2.5 h and 0.5 h prior to ischemic injury, 1 h MCAO, mean ± SEM; for neurological deficits / infarct volume: n=8; for infarct volume: 4 mg/kg; for MABP, pO2, pCO2, pH or rectal temperature versus control animals: post ischemia

Row | Compound | infarct volume reduced compared to control animals [%] | neurological deficits | infarct volume [mm^2] | MABP, pO2, pCO2, pH or rectal temperature versus control animals
1 | CC(C)C[C@@H](NC(=O)[C@H](Cc1ccccc1)NC(=O)CNC(=O)[C@@H](C)NC(=O)[C@@H](N)Cc1ccc(O)cc1)C(=O)O [DADLE, Tyr-D-Ala-Gly-Phe-D-Leu-enkephalin] | 12 | 1.73 ± 0.20 | 67 ± 9 | no significant differences
2 | Tyr-Ala-Phe-Asp-Val-Val-Gly-NH2 [deltorphin] | 42 | 0.44 ± 0.11 | 45 ± 10 | no significant differences

Reference: patent EP1073451B1, “D[…] TREATING ISCHEMIA” (University of Kentucky Research Foundation, priority 1998, dated 2002)
